Experiments:
Mmp-2, Mmp-9, Mmp-13 = assay: Mmp expression in protein treated PlatKO eyes (Example 14); type: in vivo, mouse; settings: vs BSA treated eyes
Protocol: Tissue collection and confirmation of transgene expression: After outflow facility determination in adenovirus treated mice, mCherry expression in the TM was determined in all AdPLAT and AdPLATNE injected eyes. The eyes were dissected on ice to isolate a rim of tissue containing the TM by removing most of the iris and ciliary body. […] After observation, dissected rims were immediately immersed in RNA stabilizing agent (RNAlater, Invitrogen by ThermoFisher Scientific, Waltham, Mass., USA) and frozen. For TM tissue collection following protein treatment, all eyes were flash frozen in liquid nitrogen and subsequently dissected on ice to obtain the angle ring containing the TM tissues as previously described^43. Dissected TM tissues were immersed in RNAlater solution and then snap-frozen and stored at −80° C. until RNA extraction.
RNA isolation and quantitative real time PCR: Tissue collected was pooled (four eyes) and homogenized in TRIzol reagent (Life Technologies, Carlsbad, Calif., USA). RNA was isolated per the manufacturer's instructions and resuspended in nuclease-free water. RNA concentration was determined with a Nanodrop ND-1000 Spectrophotometer (ThermoFisher Scientific, Waltham, Mass., USA). cDNA was synthesized by using High-Capacity cDNA Reverse Transcription Kit (Applied Biosystems, Waltham, Mass., USA) according to manufacturer's protocol. Quantitative real-time PCR (qRT-PCR) was performed by using Green-2-Go qPCR Mastermix-ROX (BioBasic, Amherst, N.Y., USA) on a QuantStudio 6 Flex thermal cycler (Applied Biosystems, Carlsbad, Calif., USA).
mRNA expression of sheep PLAT and mouse Mmp-2, Mmp-9, and Mmp-13 in angle ring tissues was determined. Primers were designed by using Primer-BLAST (https://www.ncbi.nlm.nih.gov/tools/primer-blast/index.cgi?LINK_LOC=BlastHome; in the public domain) and their specificity was confirmed by the presence of a single band of the expected size on agarose gel electrophoresis. […] The relative fold change was calculated by using the ΔΔCt method. […]

C57BL/6J mice = assay: Outflow facility in protein treated C57BL/6J eyes not exposed to steroids (Example 15); type: in vivo, mouse; settings: C57BL/6J not exposed to steroids, intravitreal protein
Protocol: 1) Animals receiving bilateral steroid (TA) injection subconjunctivally five days prior to protein injection (FIG. 10b) and 2) Animals not receiving subconjunctival steroids (FIG. 10c).
1) Animals that received unilateral intravitreal injection with 2 μl of tPA (5 μg/μl, Actilyse; Boehringer Ingelheim, Ingelheim am Rhein, Germany) while the contralateral eye received 2 μl of BSA (5 μg/μl; Gold Biotechnology, St Louis, Mo., USA), and 2) Animals that received unilateral intravitreal injections with 2 μl of non-enzymatically active tPA (NE-tPA/S478A-tPA) (5 μg/μl; Innovative Research, Novi, Mich., USA) while the contralateral eye received 2 μl of BSA. Animals were euthanized two days after intravitreal injection.
Outflow facility determination: Mouse eyes were enucleated immediately after euthanasia. Outflow facility was determined using a constant pressure method, as previously described. Pressure was raised in steps of 4 cmH2O, from 8 cmH2O (5.88 mmHg) to 32 cmH2O (23.54 mmHg) by increasing the height of a column of fluid of BSS. Steady state was initially achieved after 10 minutes. […] Flow was constantly measured via a microfluidic flow sensor (0.07-1.5 uL/min, MFS1; Elveflow, Paris, France). […] Any eyes that developed visible leaks during outflow facility determination, or that had pressure-flow correlations with R^2<0.9, were excluded from analysis but were used for RNA quantification.

[1] = system: Mmp-2, Mmp-9, Mmp-13, Plat; assay: Mmp and Plat expression in protein treated C57BL/6J eyes not exposed to steroids (Example 15); type: in vivo, mouse; settings: C57BL/6J not exposed to steroids
Tg-MYOCY437H mice = assay: Outflow facility in Tg-MYOCY437H mouse eyes (Example 19); type: in vivo
Protocol: To investigate whether corticosteroids affect outflow facility in Tg-MYOCY437H mice, animals received bilateral injections (20 μl) with either triamcinolone acetonide (TA) (40 mg/ml, Kenalog-40; Bristol-Myers Squibb, NY, USA) suspension or phosphate-buffered saline (PBS) (Gibco, ThermoFisher Scientific, Waltham, Mass., USA) subconjunctivally using a 100 μL Hamilton syringe with a 26-gauge needle (Precision Glide, Becton Dickinson & CO, Franklin Lakes, N.J., USA). They were euthanized one week later for outflow facility measurement.
To investigate whether tPA can affect outflow facility in Tg-MYOCY437H mice, and determine whether tPA enzymatic action is necessary for such an effect, intravitreal injections were performed using a 10 μL Hamilton syringe with 36-gauge stainless steel needles (WPI Inc, Sarasota, Fla., USA). […] Animals were sacrificed either two or five days after intravitreal injections for outflow facility measurement. […]
Mouse eyes were enucleated immediately after euthanasia. Outflow facility was determined using a microfluidic flow sensor (0.07-1.5 uL/min, MFS1; Elveflow, Paris, France) and constant pressure method, as previously described (Hu, Barron et al. 2019). […] Any eyes that developed visible leaks or that had pressure-flow correlations with […] were excluded from analysis but were used for RNA quantification.

## tissue plasminogen activator [tPA]
Mmp-2, Mmp-9, Mmp-13
  Mmp-2 expression: not significantly different
  Mmp-9 expression: significant upregulation
  Mmp-13 expression: significant upregulation
C57BL/6J mice
  outflow facility, mean±standard deviation: 102.7±19.5×10^−5 μl/min/mmHg
[1]
  endogenous Plat expression: did not cause significant changes
[1]; vs BSA
  gene expression changes in Mmp-2, Mmp-9 and Mmp-13: not significantly different
Tg-MYOCY437H mice
  improvement of outflow facility: ~31%

Source: patent publication US20210220450A1, “TREATMENT OF AN IOP CONDITION” (The Research Foundation for The State University of New York, priority 2013, published 2021)
